The target of series [1] is T1, Recombinant human protein tyrosine phosphatase 1B (Homo sapiens, UniProt P18031).
T1 construct: purchased UBI
T1 sequence (P18031 1-435): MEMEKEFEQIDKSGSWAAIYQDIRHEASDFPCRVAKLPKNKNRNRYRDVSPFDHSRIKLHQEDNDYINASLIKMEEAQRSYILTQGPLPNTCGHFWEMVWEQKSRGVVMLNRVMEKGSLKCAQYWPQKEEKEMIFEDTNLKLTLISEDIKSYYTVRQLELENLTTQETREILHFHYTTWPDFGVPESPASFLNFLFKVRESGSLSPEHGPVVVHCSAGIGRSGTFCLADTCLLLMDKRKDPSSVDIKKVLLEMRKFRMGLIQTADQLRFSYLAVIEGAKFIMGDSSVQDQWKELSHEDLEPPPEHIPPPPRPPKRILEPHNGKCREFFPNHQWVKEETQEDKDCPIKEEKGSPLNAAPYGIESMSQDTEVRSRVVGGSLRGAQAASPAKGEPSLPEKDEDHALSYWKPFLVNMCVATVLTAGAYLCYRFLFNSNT
Description: Protein tyrosine phosphatase 1B inhibitory activity (malachite green, phosphorylated insulin receptor peptide substrate). The settings on record: recombinant human PTP1B, 60 min room temperature, absorbance 650 nm. It is filed as biochemical. How it is done: Preparation of Assay Buffer:
A 50 mM Tris-HCl buffer (pH 7.5), 50 mM NaCl and 3 mM dithiothreitol (DTT) were prepared.
[…] 0.1, 0.3, 1, 3 and 10 μM of the test compound were prepared and diluted with the above-mentioned assay buffer to the final dimethyl sulfoxide (DMSO) concentration of not more than 1%. As the control, the assay buffer was used.
Preparation of Substrate:
Recombinant human protein tyrosine phosphatase 1B (manufactured by UBI) was diluted with the above-mentioned assay buffer (1.2 ng/25 μl).
The sample (10 μl) prepared as mentioned above and a substrate (25 μl) were successively added to a 96 well plate, and the enzyme (25 μl) prepared as mentioned above was added and mixed. The mixture was incubated at room temperature for 60 min and a malachite green (120 μl, Biomol), which is a color reagent, was added. The mixture was further incubated at room temperature for 20 min to allow for color development. An absorbance at 650 nm was measured on a plate reader based on which the protein tyrosine phosphatase 1B inhibitory activity of the test compound was evaluated.

Here are results for 21 molecules from US20060122181A1, “Heteroaromatic pentacyclic compound and medicinal use thereof” (Japan Tobacco Inc., priority 2003, published 2006).

Structures are written as SMILES. A value given as a limit tells only on which side of the number the result lay.

As for `CCCC(CCC)c1ccc(OCc2ccc(-c3csc(CN(C)S(=O)(=O)c4ccc(C(=O)O)cc4)n3)cc2)cc1` [Example 1-50], in series [1], the IC50 (as a rule, the concentration that inhibits the measured activity by half) worked out at 0.14 µM. Still for that read-out and setting: the result for `CN(Cc1ccc(C(=O)O)cc1)c1nc(-c2ccc(C(=O)Nc3ccc(C4CCCCC4)cc3)cc2)cs1` [Example 1-53] reads 0.24 µM. As for `CCCC(CCC)c1ccc(COc2ccc(-c3csc(CN4CCN(c5ccccc5C(=O)O)CC4)n3)cc2)cc1` [Example 1-155], the melting point (usually the temperature of the solid-liquid transition) fell in the range of 137 to 138 °C. Moreover, the IC50 in series [1] was 0.37 µM. The molecule `CCCC(CCC)c1ccc(COc2ccc(-c3csc(CN4CCN(c5cccc(C(=O)O)c5)CC4)n3)cc2)cc1` [Example 1-156] returned a melting point of 153 to 154 °C. Also, in series [1], the IC50 is 0.19 µM. For `CCCC(CCC)c1ccc(Cn2cc(-c3csc(COc4ccc(C(=O)O)cc4)n3)c3ccccc32)cc1` [Example 1-157], in that order: 199 to 200 °C and 0.17 µM. For the molecule `CCCC(CCC)c1ccc2c(c1)nc(-c1csc(COc3ccc(C(=O)O)cc3)n1)n2Cc1ccc(C(C)C)cc1` [Example 1-158], the melting point was in the range of 147 to 152 °C. Moreover, the IC50 in series [1] was 0.29 µM.

Take `CCCC(CCC)c1ccc(OCc2ccc(-c3csc(CN4CCc5ccc(C(=O)O)cc5C4)n3)cc2)cc1` [Example 1-160]: the melting point fell in the range of 148.5 to 149.5 °C. For the same molecule, the 50% inhibitory concentration (IC50) in series [1] amounted to 0.31 µM. In the case of `CCCC(CCC)c1ccc(COc2ccc(-c3csc(CN4CCC(c5ccc(C(=O)O)cc5)CC4)n3)cc2)cc1` [Example 1-161], the melting point fell in the range of 191 to 193 °C. In series [1], the IC50 came out at 0.18 µM.

On to `CCCC(CCC)c1ccc(COc2ccc(-c3csc(CN4CCC(c5cccc(C(=O)O)c5)CC4)n3)cc2)cc1` [Example 1-162], for which the melting point is 187 to 189 °C. In addition, the IC50 in series [1] was 0.21 µM. For `CCCC(CCC)c1ccc(Cn2cc(-c3csc(CN4CCc5ccc(C(=O)O)cc5C4)n3)c3ccccc32)cc1` [Example 1-166], in that order: 124 to 128 °C and 0.31 µM. Molecule `CCCC(CCC)c1ccc(Cn2cc(-c3csc(CNc4cccc(C(=O)O)c4)n3)c3ccccc32)cc1` [Example 1-167] returned a melting point of 83 to 85 °C. The IC50 in series [1] was determined as 0.41 µM. In the case of `CN(Cc1ccc(C2CCC(C)(C)CC2)cc1)c1ccc(-c2csc(CN(CC(=O)O)Cc3ccccc3)n2)cc1` [Example 3-35], the IC50 in series [1] was 0.073 µM. With `CCCC(CCC)c1ccc(OCc2ccc(-c3ccc(CN(CC(=O)O)Cc4nc5ccccc5n4C)s3)cc2)cc1` [Example 4-1], in series [1], the IC50 stood at 0.15 µM. Same read-out and setting: the value for `CCCC(CCC)c1ccc(OCc2ccc(-c3csc(CN(CC(=O)O)Cc4nc5ccccc5n4C)c3)cc2)cc1` [Example 4-30] was 0.17 µM; that for `CCCC(CCC)c1ccc(OCc2ccc(-c3ccc(CN(CC(=O)O)Cc4nc(C(C)(C)C)cs4)s3)cc2)cc1` [Example 4-35] was 0.087 µM; that for `CCCC(CCC)c1ccc(OCc2ccc(-c3ccc(C(=O)N(CC(=O)O)Cc4ncc(C(C)(C)C)s4)s3)cc2)cc1` [Example 4-43] was 0.16 µM. Turning to `CCCC(CCC)c1ccc(OCc2ccc(-c3ccc(C(=O)N4CCN(c5ccc(C(=O)O)cc5)CC4)s3)cc2)cc1` [Example 4-52], in series [1], the IC50 worked out at 0.15 µM. `CCCC(CCC)c1ccc(OCc2ccc(-c3csc(COc4cc(C(=O)O)ccc4NC(=O)CN(C)C)c3)cc2)cc1` [Example 4-56]: the IC50 in series [1] turned out to be 0.2 µM. Regarding `CCCC(CCC)c1ccc(OCc2ccc(-c3csc(COc4cc(C(=O)O)ccc4N(C)S(C)(=O)=O)c3)cc2)cc1` [Example 4-59], in series [1], the IC50 was found to be 0.18 µM.

On to `CCCC(CCC)c1ccc(OCc2ccc(-c3csc(CN(CC(=O)O)C(=O)N(C)c4ccccc4)c3)cc2)cc1` [Example 4-72], for which, in series [1], the IC50 came out at 0.29 µM. Regarding `CCCC(CCC)c1ccc(OCc2ccc(-c3ccc(CN(CC(=O)O)C(c4ccccc4)c4ccccc4)s3)cc2)cc1` [Example 4-81], the IC50 in series [1] is under 0.1 µM.
